ChEMBL document CHEMBL3112431, “Constrained TRPV1 agonists synthesized via silver-mediated intramolecular azo-methine ylide cycloaddition of α-iminoamides” (Bioorg Med Chem Lett, 2014)
Activity calls are given as the source filed them. No cut-off for these calls is given here.

biological target: Transient receptor potential cation channel subfamily V member 1 (Rattus norvegicus) (UniProt O35433); test: Agonist activity at TRPV1 in rat dorsal root ganglia neurons by 45Ca2+ uptake assay
Sequence (O35433 whole entry): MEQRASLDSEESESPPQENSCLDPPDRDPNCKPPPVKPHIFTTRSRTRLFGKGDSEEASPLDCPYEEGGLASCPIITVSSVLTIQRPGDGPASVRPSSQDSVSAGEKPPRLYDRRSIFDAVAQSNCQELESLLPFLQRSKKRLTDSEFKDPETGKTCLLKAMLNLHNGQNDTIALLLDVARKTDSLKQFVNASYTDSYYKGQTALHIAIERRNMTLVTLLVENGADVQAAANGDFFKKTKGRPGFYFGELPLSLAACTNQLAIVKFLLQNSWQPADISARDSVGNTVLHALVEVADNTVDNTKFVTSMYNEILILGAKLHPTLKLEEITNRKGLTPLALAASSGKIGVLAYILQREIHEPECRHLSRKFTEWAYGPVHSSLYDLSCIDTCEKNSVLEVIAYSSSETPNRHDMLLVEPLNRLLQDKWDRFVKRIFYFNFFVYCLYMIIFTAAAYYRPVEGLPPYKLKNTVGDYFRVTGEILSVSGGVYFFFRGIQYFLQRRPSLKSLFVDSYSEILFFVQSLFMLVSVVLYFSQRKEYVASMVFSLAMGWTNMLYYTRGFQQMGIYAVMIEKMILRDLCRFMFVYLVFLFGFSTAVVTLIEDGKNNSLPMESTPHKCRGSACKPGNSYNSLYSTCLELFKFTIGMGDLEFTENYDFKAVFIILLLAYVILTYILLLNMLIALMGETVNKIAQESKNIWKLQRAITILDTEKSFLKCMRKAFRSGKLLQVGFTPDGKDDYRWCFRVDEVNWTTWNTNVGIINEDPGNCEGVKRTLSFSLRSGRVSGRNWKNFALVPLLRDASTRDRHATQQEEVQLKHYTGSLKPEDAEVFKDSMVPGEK

Row | Compound | Activity
1 | CCOC(=O)[C@H]1[C@H]2COc3ccc(Cl)cc3[C@@H]2N2C(=O)c3ccc(C)cc3NC(=O)[C@@]12C | Active
2 | COc1cc(CNC(=O)CCCC/C=C/C(C)C)ccc1O | Active

biological target: Transient receptor potential cation channel subfamily V member 1 (Rattus norvegicus) (UniProt O35433); test: Partial agonist activity at TRPV1 in rat dorsal root ganglia neurons by 45Ca2+ uptake assay

Row | Compound | Activity
3 | CCOC(=O)[C@@H]1[C@H]2COc3ccc(OC)cc3[C@@H]2N[C@]1(C)C(=O)Nc1cc(C)ccc1C(=O)OC | Active
4 | CCOC(=O)[C@@H]1[C@H]2COc3ccc(F)cc3[C@@H]2N[C@]1(C)C(=O)Nc1cc(C)ccc1C(=O)OC | Active
5 | CCOC(=O)[C@@H]1[C@H]2COc3ccc(Cl)cc3[C@@H]2N[C@]1(C)C(=O)Nc1cc(C)ccc1C(=O)OC | Active
6 | CCOC(=O)[C@@H]1[C@H]2COc3c(F)cccc3[C@@H]2N[C@]1(C)C(=O)Nc1cc(C)ccc1C(=O)OC | Active
